Reference: ChEMBL document CHEMBL4813942, “Hydrated Rubrolides from the New Zealand Tunicate Synoicum kuranui” (2021)
Converted amounts (≈) assume the structure as drawn. The source made the active and inactive calls. No cut-off for these calls is given here.

Columns and labels:
Bacillus subtilis = assay: Antibacterial activity against Bacillus subtilis 168 assessed as bacterial growth inhibition measured after 16 hrs by serial dilution method; format: functional; conditions: subsp. subtilis str. 168
Staphylococcus aureus [1] = assay: Antibacterial activity against methicillin-resistant Staphylococcus aureus ATCC 43300 assessed as bacterial growth inhibition measured after 16 hrs by serial dilution method; format: functional
Staphylococcus aureus [2] = assay: Antibacterial activity against methicillin-sensitive Staphylococcus aureus ATCC 25923 assessed as bacterial growth inhibition measured after 16 hrs by serial dilution method; format: functional
HCT-116 [3] = assay: Cytotoxicity against human HCT-116 cells assessed as reduction in cell growth at 0.06 to 30 uM measured after 48 hrs by MTS assay; format: functional, cell-based; conditions: dose 0.06-30 µM
HCT-116 [4] = assay: Cytotoxicity against human HCT-116 cells assessed as reduction in cell growth at 12.8 uM measured after 48 hrs by MTS assay; format: functional, cell-based

O=C1C=C(c2cc(Br)c(O)c(Br)c2)/C(=C/c2cc(Br)c(O)c(Br)c2)O1 [RUBROLIDE A] gave an MIC (Bacillus subtilis) of 2 µg/mL (≈ 3.36 µM), an MIC (Staphylococcus aureus [1]) of 2 µg/mL (≈ 3.36 µM) and an MIC (Staphylococcus aureus [2]) of 8 µg/mL (≈ 13.4 µM). The Activity (HCT-116 [3]) was “inactive”.

O=C1OC(O)(Cc2ccc(O)cc2)C(c2cc(Br)c(O)c(Br)c2)=C1Cl (centres undefined) gave an MIC (Bacillus subtilis) of 128 µg/mL (≈ 261 µM), an MIC (Staphylococcus aureus [1]) of 128 µg/mL (≈ 261 µM) and an MIC (Staphylococcus aureus [2]) of 128 µg/mL (≈ 261 µM). For the same compound, the Activity (HCT-116 [3]) was “inactive”.

Compound CN(C)[C@@H]1C(O)=C(C(N)=O)C(=O)[C@@]2(O)C(O)=C3C(=O)c4c(O)cccc4[C@@](C)(O)[C@H]3C[C@@H]12 [TETRACYCLINE] has an MIC (Bacillus subtilis) of 2 µg/mL (≈ 4.5 µM), an MIC (Staphylococcus aureus [1]) of less than 0.25 µg/mL and an MIC (Staphylococcus aureus [2]) of less than 0.25 µg/mL.

With O=C1C=C(c2cc(Br)c(O)c(Br)c2)C(O)(Cc2cc(Br)c(O)c(Br)c2)O1 (centres undefined) the MIC (Bacillus subtilis) was 32 µg/mL (≈ 52.1 µM), the MIC (Staphylococcus aureus [1]) was 16 µg/mL (≈ 26.1 µM) and the MIC (Staphylococcus aureus [2]) was 32 µg/mL (≈ 52.1 µM). The Activity (HCT-116 [3]) was “inactive”.

In the case of O=C1C=C(c2cc(Br)c(O)c(Br)c2)C(O)(Cc2ccc(O)c(Br)c2)O1 (centres undefined), the MIC (Bacillus subtilis) was greater than 128 µg/mL, the MIC (Staphylococcus aureus [1]) was greater than 128 µg/mL and the MIC (Staphylococcus aureus [2]) was greater than 128 µg/mL. The Activity (HCT-116 [4]) was “Active”.
